Here are results for 3 compounds from the NIST ThermoML archive (doi:10.1021/acs.jced.7b00393).

The conditions of data set [1]: 298.2 K; 101.33 kPa; Liquid; Vibrating tube method.
Data set [2] in a line: refractive index (Na D-line) (dimensionless). The conditions noted are these: 298.2 K; 101.33 kPa; Liquid; Standard Abbe refractometry.
The nature of data set [3]: refractive index (Na D-line) (dimensionless); wn = mass fraction of the nth substance listed. The conditions noted are these: 81.5 kPa, Liquid, Standard Abbe refractometry.

Each structure is given as a SMILES string. ± gives the expanded uncertainty stated by the source.

The mass density is mass per unit of volume. The refractive index is the speed of light in vacuum divided by its phase velocity in the sample.

With `CC(C)c1ccccc1` [isopropylbenzene], the mass density in data set [1] is reported as 857.54 ± 1.7 kg/m3. Moreover, the refractive index in data set [2] was 1.49005 ± 0.0014.

With `CC(C)c1ccccc1` [isopropylbenzene] + O, the refractive index in data set [3] (293.2 K, w2 = 0.0006) came out at 1.4915 ± 0.0014; in data set [3] (293.2 K, w2 = 0.9998), 1.3335 ± 0.0014; in data set [3] (298.2 K, w2 = 0.0009) it was 1.49001 ± 0.0014; in data set [3] (298.2 K, w2 = 0.9996), 1.333 ± 0.0014; in data set [3] (308.2 K, w2 = 0.0011), 1.4859 ± 0.0014; in data set [3] (308.2 K, w2 = 0.9994) it was 1.33195 ± 0.0014.

As to `O` [water], the refractive index in data set [2] is listed as 1.3325 ± 0.0014.
